Data taken from patent US20250215039A1, “NUCLEOSIDES FOR TREATING CANCER” (PRIMEFOUR THERAPEUTICS, INC., priority 2022, published 2025).
Where two headings read alike, the source gives them in different places.

Tested on: cancer cell lines
Assay: Cancer cell proliferation activity (CellTiterGlo, 72 h)
Type: cell-based
Conditions: 72 h, 72 h, read-out: IC50
Method in brief: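 Readout is CellTiterGlo luminescence after 72 h compound exposure (0.1% DMSO final), started one day post-seeding, at 37 °C.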

CC(C)C[C@]1(CO)O[C@@H](n2cnc3c(N)nc(F)nc32)C[C@@H]1O [Cpd. No. 133, (2R,3S,5R)-5-(6-amino-2-fluoro-9H-purin-9-yl)-2-(hydroxymethyl)-2-isobutyltetrahydrofuran-3-ol]
IC50 (5637 cell line (bladder)): 4.09 µM | IC50 (CLS439 cell line (bladder)): > 50 µM | IC50 (HS729 cell line (muscle)): 8.57 µM | IC50 (HSS78T cell line): 3.71 µM | IC50 (JAR cell line (placenta)): 3.66 µM | IC50 (SKMELS cell line): 4.92 µM | IC50 (Homo sapiens, 22Rv1, 72 h, 22RV1 cell line (prostate)): > 50 µM | IC50 (Homo sapiens, 786-0, 72 h, 786O cell line (kidney)): 2.59 µM | IC50 (Homo sapiens, A204, 72 h, A204 cell line (muscle)): 4.91 µM | IC50 (Homo sapiens, A549, 72 h, A549 cell line): 4.96 µM | IC50 (Homo sapiens, A673, 72 h, A673 cell line (bone)): > 50 µM | IC50 (Homo sapiens, A2780, 72 h, A2780 cell line (ovary)): 4.54 µM | IC50 (Homo sapiens, A-375, 72 h, A375 cell line (skin)): 3.67 µM | IC50 (Homo sapiens, A-431, 72 h, A431 cell line (skin)): 2.29 µM | IC50 (Homo sapiens, ACHN, ACHN cell line (kidney)): > 50 µM | IC50 (Homo sapiens, ASPC1, 72 h, ASPC1 cell line (pancreas)): 2.99 µM | IC50 (Homo sapiens, BT-20, 72 h, BT20 cell line (breast)): 4.14 µM | IC50 (Homo sapiens, BXPC-3, 72 h, BXPC3 cell line (pancreas)): 7.13 µM | IC50 (Homo sapiens, C-33-A, C33A cell line (cervical)): 4.28 µM | IC50 (Homo sapiens, CAKI-1, 72 h, CAKI1 cell line (kidney)): 0.41 µM | IC50 (Homo sapiens, COLO 205, 72 h, COLO205 cell line (colon)): 5.86 µM | IC50 (Homo sapiens, COLO-678, 72 h, COLO678 cell line (colon)): 9.54 µM | IC50 (Homo sapiens, Ca-Ski, CASKI cell line (cervical)): 2.33 µM | IC50 (Homo sapiens, Caco-2, 72 h, CACO2 cell line (colon)): 5.32 µM | IC50 (Homo sapiens, Calu-6, 72 h, CALU6 cell line (lung)): 3.07 µM | IC50 (Homo sapiens, DLD-1, 72 h, DLD1 cell line (colon)): > 50 µM | IC50 (Homo sapiens, DU-145, 72 h, DU145 cell line (prostate)): 3.3 µM | IC50 (Homo sapiens, EFO-21, 72 h, EFO21 cell line (ovary)): 3.75 µM | IC50 (Homo sapiens, EJ-28, 72 h, EJ28 cell line (bladder)): 5.11 µM | IC50 (Homo sapiens, Granta-519, 72 h, GRANTA-519 cell line (hematological)): > 50 µM | IC50 (Homo sapiens, HCT-15, 72 h, HCT15 cell line (colon)): > 50 µM | IC50 (Homo sapiens, HCT-116, 72 h, HCT116 cell line (colon)): 3.96 µM | IC50 (Homo sapiens, HEK293, 72 h, HEK293 cell line (kidney)): 5.3 µM | IC50 (Homo sapiens, HL-60, 72 h, HL-60 cell line (hematological)): 5.42 µM | IC50 (Homo sapiens, HT-29, 72 h, HT29 cell line (colon)): 2.16 µM | IC50 (Homo sapiens, HT-1080, 72 h, HT1080 cell line (connective tissue)): > 50 µM | IC50 (Homo sapiens, HeLa, HELA cell line (cervical)): 2.73 µM | IC50 (Homo sapiens, HepG2, 72 h, HEPG2 cell line (liver)): 3.32 µM | IC50 (Homo sapiens, IGROV-1, 72 h, IGROV1 cell line (ovary)): 2.72 µM | IC50 (Homo sapiens, IMR-90, 72 h, IMR.90 cell line): 2.76 µM | IC50 (Homo sapiens, J82, 72 h, J82 cell line (bladder)): 3.18 µM | IC50 (Homo sapiens, JEG-3, 72 h, JEG3 cell line (placenta)): 3.36 µM | IC50 (Homo sapiens, JIMT-1, 72 h, JIMT1 cell line (breast)): 1.43 µM | IC50 (Homo sapiens, K562, 72 h, K-562 cell line (hematological)): > 50 µM | IC50 (Homo sapiens, Kasumi 1, 72 h, KASUMI-1 cell line (hematological)): 1.54 µM | IC50 (Homo sapiens, L-363, 72 h, L-363 cell line (hematological)): 3.16 µM | IC50 (Homo sapiens, LoVo, LOVO cell line (colon)): 3.61 µM | IC50 (Homo sapiens, MCF7, 72 h, MCF7 cell line (breast)): > 50 µM | IC50 (Homo sapiens, MDA-MB-231, 72 h, MDAMB231 cell line (breast)): > 50 µM | IC50 (Homo sapiens, MDA-MB-435, 72 h, MDAMB435 cell line (skin)): > 50 µM | IC50 (Homo sapiens, MDA-MB-436, 72 h, MDAMB436 cell line (breast)): 3.36 µM | IC50 (Homo sapiens, MDA-MB-468, 72 h, MDAMB468 cell line (breast)): 2.58 µM | IC50 (Homo sapiens, MG-63, 72 h, MG63 cell line (bone)): > 50 µM | IC50 (Homo sapiens, MHH-ES-1, 72 h, MHHES1 cell line (bone)): 3.07 µM | IC50 (Homo sapiens, MIA PaCa-2, 72 h, MIAPACA2 cell line (pancreas)): > 50 µM | IC50 (Homo sapiens, MINO, MINO cell line (hematological)): 2.52 µM | IC50 (Homo sapiens, MV4-11, 72 h, MV4-11 cell line (hematological)): 3.35 µM | IC50 (Homo sapiens, NCI-H23, 72 h, NCI-H23 cell line (lung)): 3.33 µM | IC50 (Homo sapiens, NCI-H82, 72 h, NCIH82 cell line (lung)): 3.4 µM | IC50 (Homo sapiens, NCI-H292, 72 h, NCIH292 cell line (lung)): > 50 µM | IC50 (Homo sapiens, NCI-H460, 72 h, NCIH460 cell line (lung)): 5.43 µM | IC50 (Homo sapiens, OVCAR-3, 72 h, OVCAR3 cell line (ovary)): 1.92 µM | IC50 (Homo sapiens, OVCAR-4, 72 h, OVCAR4 cell line (ovary)): 4.25 µM | IC50 (Homo sapiens, PANC-1, 72 h, PANC1 cell line (pancreas)): > 50 µM | IC50 (Homo sapiens, PC-3, 72 h, PC3 cell line (prostate)): 3.83 µM | IC50 (Homo sapiens, PLC-PRF-5, 72 h, PLCPRF5 cell line (liver)): > 50 µM | IC50 (Homo sapiens, Panc1005, 72 h, PANC1005 cell line (pancreas)): 2.98 µM | IC50 (Homo sapiens, RD, RD cell line (muscle)): 4.61 µM | IC50 (Homo sapiens, Ramos, RAMOS cell line (hematological)): 3.68 µM | IC50 (Homo sapiens, SAOS-2, 72 h, SAOS2 cell line (bone)): 4.32 µM | IC50 (Homo sapiens, SF-268, 72 h, SF268 cell line (brain)): > 50 µM | IC50 (Homo sapiens, SF-295, 72 h, SF295 cell line (brain)): > 50 µM | IC50 (Homo sapiens, SK-BR-3, 72 h, SKBR3 cell line (breast)): 1.09 µM | IC50 (Homo sapiens, SK-HEP1, 72 h, SKHEP1 cell line (liver)): 5.13 µM | IC50 (Homo sapiens, SK-LMS-1, 72 h, SKLMS1 cell line (uterus)): 4.34 µM | IC50 (Homo sapiens, SK-MEL-28, 72 h, SKMEL28 cell line (skin)): 3.69 µM | IC50 (Homo sapiens, SK-N-AS, SKNAS cell line (brain)): 2.78 µM | IC50 (Homo sapiens, SK-N-SH, SKNSH cell line (brain)): 2.65 µM | IC50 (Homo sapiens, SK-OV-3, 72 h, SKOV3 cell line (ovary)): 3.01 µM | IC50 (Homo sapiens, SNB-75, 72 h, SNB75 cell line (brain)): 9.06 µM | IC50 (Homo sapiens, SU-DHL10, 72 h, SU-DHL-10 cell line (hematological)): 4.84 µM | IC50 (Homo sapiens, SU-DHL-6, 72 h, SU-DHL-6 cell line (hematological)): 3.29 µM | IC50 (Homo sapiens, SW-620, 72 h, SW620 cell line (colon)): 3.44 µM | IC50 (Homo sapiens, T-24, 72 h, T24 cell line (bladder)): 3.9 µM | IC50 (Homo sapiens, TE-671, 72 h, TE671 cell line (muscle)): > 50 µM | IC50 (Homo sapiens, THP-1, 72 h, THP-1 cell line (hematological)): > 50 µM | IC50 (Homo sapiens, U2OS, U2OS cell line (bone)): 2.64 µM | IC50 (Homo sapiens, U-87 MG, U87MG cell line (brain)): > 50 µM | IC50 (Homo sapiens, UMUC3, 72 h, UMUC3 cell line (bladder)): > 50 µM | IC50 (Homo sapiens, UO-31, 72 h, UO31 cell line (kidney)): 2.15 µM | IC50 (Homo sapiens, WSU-NHL, WSU-NHL cell line (hematological)): 3.41 µM | IC50 (MT-3, 72 h, MT3 cell line (breast)): 2.87 µM | IC50 (NCI-H358M, NCIH358M cell line (lung)): 2.68 µM | IC50 (PBMC, PBMC (hematological)): > 50 µM | IC50 (RD-ES, RDES cell line (bone)): 3.07 µM
